According to patent US20230346790A1, “PHARMACEUTICAL COMPOSITION FOR PREVENTION OR TREATMENT OF CANCERS ASSOCIATED WITH KRAS MUTATION” (WELLMARKER BIO CO., LTD., priority 2020, published 2023):
Entries after “also recorded” stand apart in the source; their conditions may differ.

Key:
[1] = test system: cell line R2 exhibiting secondary resistance to cetuximab, overexpressing β-catenin; assay: Cell death induction after β-catenin overexpression, trypan blue exclusion assay; type: cell-based; details: 48 hours
Description: (§1) Subsequently, all cells were collected when 48 hours had elapsed. Cell death induction efficacy was compared and analyzed using a trypan blue exclusion assay. In addition, using these samples, changes in expression of respective proteins were compared and analyzed with the western blotting method.

[2] = test system: cetuximab-resistant cell line R2 (LIM1215, KRAS G13D, RON Δ155); assay: Cell death rate by trypan blue staining and cell counting, cetuximab-resistant line; type: cell-based; details: cetuximab-resistant cell line R2, 1 µM, 48 hours
Description: (§2) The parent cell line LIM1215 and the cetuximab-resistant cell line R2 were counted, and each of them was seeded at 3×10^5 cells in a 60 mm dish. After 24 hours, treatment with 1 µM of each of the compounds of Example 1, Example 2, Example 3, Example 4, Example 5, positive control 1 (BMS-777607), positive control 2 (crizotinib), and positive control 3 (cabozantinib) was performed. After 48 hours had elapsed since the treatment, the cells were collected, resuspended in 1x phosphate buffered saline (PBS), and stained with a trypan blue solution. The stained cells were counted using a hemocytometer. Cell counting was performed in duplicate, and the mean and the standard deviation were calculated.

[3] = test system: pTyr-mRON, mRON, β-catenin, cleaved caspase-3 in tumor tissues; assay: Immunohistochemical staining of extracted tumor tissues; type: in vivo, BALB/c nude mice; details: R2 xenograft
Description: (§3) After completion of the 4-week experiment, the experimental animals were euthanized, and then the tumors were extracted and weighed. In addition, with respect to the tumor tissues, changes in expressions of pTyr-mRON, mRON, β-catenin, and cleaved caspase-3 were analyzed with immunohistochemical staining.

[4] = test system: cell line R2 exhibiting secondary resistance to cetuximab (LIM1215, KRAS G13D); assay: Tumor growth inhibition in mice transplanted with cetuximab-resistant cell line R2; type: in vivo, BALB/c nude mice; details: R2 xenograft mice
Description: 5-Week-old female BALB/c nude mice were purchased and acclimatized for 1 week. […] The compound of Example 1 was orally administered when the tumor reached a size of about 100 mm^3. The compound of Example 1 was administered once a day for 2 weeks, and tumor size and body weight were measured twice a week.
as §3

[5] = test system: pTyr-mRON, p-ERK, β-catenin, c-myc, cleaved caspase-3 in cell line R2; assay: Western blotting of protein expression after empty vector or β-catenin transfection; type: cell-based
Description: The parent cell line LIM1215 and the cetuximab-resistant cell line R2 were counted. 2×10^6 cells of each cell line were washed with 1x PBS once and then lysed with 1x RIPA lysis buffer. The cell lysate was reacted on ice for 20 minutes, and then centrifuged at 13,000 rpm for 20 minutes at 4° C. to obtain a supernatant. After proteins in the obtained supernatant were quantified using Bradford method, 20 µg of the protein was subjected to sodium-polyacrylamide gel electrophoresis (SDS-PAGE).
Transfer was performed using polyvinylidene fluoride (PVDF) membrane. Then, each of phospho-RON antibody (MyBiosource, Inc., cat# MBS462024; 1:500), RON antibody (Santa Cruz Biotechnology, cat# sc-374626; 1:1,000), phospho-EGFR antibody (Cell Signaling Technology, Inc., cat# 2234; 1:1,000), EGFR antibody (Cell Signaling Technology, Inc., cat# 2232; 1:1,000), phospho-Akt antibody (Cell Signaling Technology, Inc., cat# 4060; 1:1,000), Akt antibody (Cell Signaling Technology, Inc., cat# 9272; 1:1,000), phospho-ERK antibody (Cell Signaling Technology, Inc., cat# 4370; 1:1,000), ERK antibody (Cell Signaling Technology, Inc., cat# 4695; 1:1,000), phospho-β-catenin antibody (Cell Signaling Technology, Inc., cat# 9561; 1:1,000), β-catenin antibody (Cell Signaling Technology, Inc., cat# 8480; 1:1,000), c-myc antibody (Santa Cruz Biotechnology, cat# sc-40; 1:500), and β-actin antibody (Santa Cruz Biotechnology, cat# sc-47778; 1:1,000) was diluted in 5% skim milk tris buffered saline with Tween 20 (TBS-T) solution and reacted at 4° C. overnight.
After completion of the reaction, washing with the TBS-T solution was performed three times for 10 minutes each. Subsequently, anti-mouse-HRP or anti-rabbit-HRP (Cell Signaling Technology, Inc., cat# 7074 or 7076; 1:2,000) was diluted in the 5% skim milk TBS-T solution, and then reacted at room temperature for 2 hours. Then, washing with the TBS-T solution was performed three times for 10 minutes each, and then development was performed using an ECL solution (GE Healthcare, cat# RPN2108).
as §1

parent cell line LIM1215 = assay: Cell death rate by trypan blue staining and cell counting, cetuximab-sensitive parent line; type: cell-based; details: parent cell line LIM1215, 1 µM, 48 hours
Description: as §2

[6] = cell line R2, β-catenin overexpressed
[7] = cell line R2 transfected with the empty vector

## CCOc1ccn(-c2ccc(F)cc2)c(=O)c1C(=O)Nc1ccc(Oc2ccnc3cc(-c4ccc(CN5CCOCC5)cn4)sc23)c(F)c1.Cl [Example 1, 4-Ethoxy-N-[3-Fluoro-4-({2-[5-(Morpholinomethyl)Pyridine-2-yl]Thieno[3,2-b]Pyridine-7-yl}Oxy)Phenyl]-1-(4-Fluorophenyl)-2-Oxo-1,2-Dihydropyridine-3-Carboxamide Hydrochloride]
[1]
  cell death induction efficacy: reduced
[2]; Hydrochloride
  cell death rate: high cell death rate; also recorded: cell death was effectively induced
[3]
  expression of cleaved caspase-3 in tumor tissue: increased
  expression of pTyr-mRON in tumor tissue: decreased
  expression of β-catenin in tumor tissue: decreased
[4]; 15 mg/kg, oral once a day
  Tumor growth inhibition (TGI, %): 62.3±4.5%
[4]; small dose
  tumor size inhibition effect as compared with cetuximab: remarkably excellent tumor size inhibition effect
[5]; cell line R2, regardless of β-catenin, western blotting
  expression of pTyr-mRON: decreased
[5]; [6]
  expression of c-myc: increased again
  expression of cleaved caspase-3: decreased
  expression of p-ERK: increased again
  expression of β-catenin: increased again
[5]; [7]
  expression of c-myc: decreased
  expression of p-ERK: decreased
  expression of β-catenin: decreased

## CCOc1ccn(-c2ccccc2)c(=O)c1C(=O)Nc1ccc(Oc2ccnc3cc(-c4ccc(CNCCOC)cn4)sc23)c(F)c1.Cl [Example 2, 4-Ethoxy-N-(3-Fluoro-4-{[2-(5-{[(2-Methoxyethyl)Amino]Methyl}Pyridine-2-yl)Thieno[3,2-b]Pyridine-7-yl]Oxy}Phenyl)-2-Oxo-1-Phenyl-1,2-Dihydropyridine-3-Carboxamide Hydrochloride]
[2]; Hydrochloride
  cell death rate: cell death was effectively induced

## CCOc1ccn(-c2ccccc2)c(=O)c1C(=O)Nc1ccc(Oc2ccnc3cc(-c4ccc(CN5CCN(C)CC5)cn4)sc23)c(F)c1.Cl [Example 3, 4-Ethoxy-N-{3-Fluoro-4-[(2-{5-[(4-Methylpiperazin-1-yl)Methyl]Pyridin-2-yl}Thieno[3,2-b]Pyridin-7-yl)Oxy]Phenyl}-2-Oxo-1-Phenyl-1,2-Dihydropyridine-3-Carboxamide Hydrochloride]
[2]; Hydrochloride
  cell death rate: cell death was effectively induced

## COc1cc2c(Oc3ccc(NC(=O)c4c5c(cn(-c6ccc(F)cc6)c4=O)CCO5)cc3F)ccnc2cc1OCCN1CCOCC1 [Example 4, N-(3-Fluoro-4-((6-Methoxy-7-(2-Morpholinoethoxy)Quinolin-4-yl)Oxy)Phenyl)-5-(4-Fluorophenyl)-6-Oxo-2,3,5,6-Tetrahydrofuro[3,2-c]Pyridine-7-Carboxamide]
[2]
  cell death rate: cell death was effectively induced

## COc1cc2c(Oc3ccc(NC(=O)c4c5c(cn(-c6ccc(F)cc6)c4=O)CCO5)cc3F)ccnc2cc1OCCCN1CC(C#N)C1 [Example 5, N-(4-((7-(3-(3-Cyanoazetidine-1-yl)Propoxy)-6-Methoxyquinoline-4-yl)Oxy)-3-Fluorophenyl)-5-(4-Fluorophenyl)-6-Oxo-2,3,5,6-Tetrahydrofuro[3,2-c]Pyridine-7-Carboxamide]
[2]
  cell death rate: cell death was effectively induced

## CCOc1ccn(-c2ccc(F)cc2)c(=O)c1C(=O)Nc1ccc(Oc2ccnc(N)c2Cl)c(F)c1 [positive control 1, reference compound]
[2]
  cell death rate: cell death was not induced
Parent cell line LIM1215
  cell death rate: cell death was not induced

## C[C@@H](Oc1cc(-c2cnn(C3CCNCC3)c2)cnc1N)c1c(Cl)ccc(F)c1Cl [positive control 2, reference compound]
[2]
  cell death rate: cell death was not induced
Parent cell line LIM1215
  cell death rate: increased cell death rate
